Laboratory results as given in BindingDB's records for doi:10.1111/cbdd.12189 (Tianjin Medical University, 2013).

Legend:
[1] = biological target: T1, Tyrosine-protein phosphatase non-receptor type 1 (Homo sapiens, UniProt P18031); assay: PTP activity assay; conditions: pH 6; 37 °C
T1 sequence (P18031 whole entry): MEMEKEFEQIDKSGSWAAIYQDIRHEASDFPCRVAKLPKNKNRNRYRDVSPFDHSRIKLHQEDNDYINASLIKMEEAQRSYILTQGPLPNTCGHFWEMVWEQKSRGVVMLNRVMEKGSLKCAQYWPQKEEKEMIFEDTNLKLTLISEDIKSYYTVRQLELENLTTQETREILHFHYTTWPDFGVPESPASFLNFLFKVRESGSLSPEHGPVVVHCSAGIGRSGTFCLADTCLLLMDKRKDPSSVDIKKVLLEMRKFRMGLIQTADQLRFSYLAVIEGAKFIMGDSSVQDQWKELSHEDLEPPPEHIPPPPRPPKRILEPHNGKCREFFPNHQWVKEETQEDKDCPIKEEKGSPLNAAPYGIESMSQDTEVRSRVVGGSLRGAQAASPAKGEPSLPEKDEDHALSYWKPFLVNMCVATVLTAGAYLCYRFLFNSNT
Method: (§1) The enzyme activity was measured using p-nitrophenyl phosphate (pNPP) as substrate in a 96-well plate and by detecting the absorbance at 405 nm for the amount of produced p-nitrophenol. Purified human recombinant PTP1B or TCPTP (0.05 µg) in 50 µL buffer containing 50 mM citrate (pH 6.0), 0.1 M NaCl, 1 mM EDTA, and 1 mM DTT and test compounds were added to each well. Each mixture was pre-incubated for 15 min at room temperature, followed by the addition of 50 µL of reaction buffer containing 2 mM pNPP and incubated at 37°C for 30 min.

[2] = biological target: T2, Tyrosine-protein phosphatase non-receptor type 2 (Homo sapiens, UniProt P17706); assay: PTP activity assay; conditions: pH 6; 37 °C
T2 sequence (P17706 whole entry): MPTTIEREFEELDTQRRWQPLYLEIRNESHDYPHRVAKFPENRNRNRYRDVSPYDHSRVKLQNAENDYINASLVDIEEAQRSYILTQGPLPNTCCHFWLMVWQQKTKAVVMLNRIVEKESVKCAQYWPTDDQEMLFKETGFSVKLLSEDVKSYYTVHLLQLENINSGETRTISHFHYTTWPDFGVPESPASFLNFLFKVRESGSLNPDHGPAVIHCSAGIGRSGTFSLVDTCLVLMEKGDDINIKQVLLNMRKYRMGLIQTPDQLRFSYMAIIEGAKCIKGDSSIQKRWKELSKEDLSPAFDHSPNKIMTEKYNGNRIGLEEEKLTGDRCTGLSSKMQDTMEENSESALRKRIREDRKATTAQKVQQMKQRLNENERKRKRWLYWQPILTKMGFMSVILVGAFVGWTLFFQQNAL
Method: as §1

IC50 [1] [µM] | IC50 [2] [µM] | Structure (SMILES)
4.1 | 18.7 | O=C1NC(=O)/C(=C/c2ccccc2OCc2ccc(Cl)cc2Cl)N1 [(5Z)‐5‐({2‐[(2,4‐ dichlorophenyl)methoxy]phenyl}methylidene)imidazolidine‐ 2,4‐dione (comp#c)]
37.4 | 36.8 | O=C1NC(=O)/C(=C/c2ccccc2OCc2cccc(Cl)c2)N1 [(5Z)‐5‐({2‐[(3‐ chlorophenyl)methoxy]phenyl}methylidene)imidazolidine‐ 2,4‐dione (comp#a)]
4.6 | 35.9 | O=C1NC(=O)/C(=C/c2ccccc2OCc2ccc(Cl)cc2)N1 [(5Z)‐5‐({2‐[(4‐ chlorophenyl)methoxy]phenyl}methylidene)imidazolidine‐ 2,4‐dione (comp#b)]
4.1 | > 138 | O=C1NC(=O)/C(=C/c2cccc(OCc3ccc(Cl)cc3Cl)c2)N1 [(5Z)‐5‐({3‐[(2,4‐ dichlorophenyl)methoxy]phenyl}methylidene)imidazolidine‐ 2,4‐dione (comp#h)]
2.8 | 33.6 | O=C1NC(=O)/C(=C/c2cccc(OCc3ccc(Cl)c(Cl)c3)c2)N1 [(5Z)‐5‐({3‐[(3,4‐ dichlorophenyl)methoxy]phenyl}methylidene)imidazolidine‐ 2,4‐dione (comp#i)]
40.8 | 137 | O=C1NC(=O)/C(=C/c2cccc(OCc3ccc(Cl)cc3)c2)N1 [(5Z)‐5‐({3‐[(4‐ chlorophenyl)methoxy]phenyl}methylidene)imidazolidine‐ 2,4‐dione (comp#g)]
– | 11.6 | O=C1NC(=O)/C(=C/c2ccc(OCc3ccc(Cl)cc3Cl)cc2)N1 [(5Z)‐5‐({4‐[(2,4‐ dichlorophenyl)methoxy]phenyl}methylidene)imidazolidine‐ 2,4‐dione (comp#j)]
– | 33.9 | O=C1NC(=O)/C(=C/c2ccc(OCc3ccc(Cl)c(Cl)c3)cc2)N1 [(5Z)‐5‐({4‐[(3,4‐ dichlorophenyl)methoxy]phenyl}methylidene)imidazolidine‐ 2,4‐dione (comp#k)]
3.4 | 31.4 | COc1ccc(COc2ccc(/C=C3\NC(=O)NC3=O)cc2)cc1 [(5Z)‐5‐({4‐[(4‐ methoxyphenyl)methoxy]phenyl}methylidene)imidazolidine‐ 2,4‐dione (comp#l)]
> 170 | > 170 | O=C1NC(=O)/C(=C/c2cccc(OCc3ccccc3)c2)N1 [(5Z)‐5‐{[3‐ (benzyloxy)phenyl]methylidene}imidazolidine‐2,4‐ dione (comp#d)]
11.4 | 44.1 | O=C1NC(=O)/C(=C/c2cccc(OCCc3ccccc3)c2)N1 [(5Z)‐5‐{[3‐(2‐ phenylethoxy)phenyl]methylidene}imidazolidine‐2,4‐ dione (comp#e)]
41.9 | 22.3 | O=C1NC(=O)/C(=C/c2cccc(OCCCc3ccccc3)c2)N1 [(5Z)‐5‐{[3‐(3‐ phenylpropoxy)phenyl]methylidene}imidazolidine‐2,4‐ dione (comp#f)]
